Laboratory results published in patent US20070049593A1 (priority 2004, published 2007).
Structures can show the parent of a compound that is named as a salt.

biological target: T1, HCV polymerase (Hepatitis C virus genotype 1b, UniProt P26663); assay: biochemical; parameters: species or system HCV BK strain
T1 construct: a region encoding NS5B (J Virol 1991 March, 65(3), 1105-13, 544 amino acids after deletion of 47 amino acids on the C-terminal); 6xHis (C); made in house; host or cells: Escherichia coli
In short: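 Recombinant HCV BK-strain NS5B (C-terminal 47 aa deleted, His6-tagged, E. coli), 0.5 μg/ml, run with 5 μg/ml in vitro-transcribed RNA template (polyU/3′X), ATP/GTP/CTP 50 μM, UTP 2 μM plus [3H]UTP, pH 7.5, 25° C, 90 min. TCA-precipitated RNA counted by scintillation; IC50 from activity with vs without compound.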

T1 sequence (P26663 2420-2963): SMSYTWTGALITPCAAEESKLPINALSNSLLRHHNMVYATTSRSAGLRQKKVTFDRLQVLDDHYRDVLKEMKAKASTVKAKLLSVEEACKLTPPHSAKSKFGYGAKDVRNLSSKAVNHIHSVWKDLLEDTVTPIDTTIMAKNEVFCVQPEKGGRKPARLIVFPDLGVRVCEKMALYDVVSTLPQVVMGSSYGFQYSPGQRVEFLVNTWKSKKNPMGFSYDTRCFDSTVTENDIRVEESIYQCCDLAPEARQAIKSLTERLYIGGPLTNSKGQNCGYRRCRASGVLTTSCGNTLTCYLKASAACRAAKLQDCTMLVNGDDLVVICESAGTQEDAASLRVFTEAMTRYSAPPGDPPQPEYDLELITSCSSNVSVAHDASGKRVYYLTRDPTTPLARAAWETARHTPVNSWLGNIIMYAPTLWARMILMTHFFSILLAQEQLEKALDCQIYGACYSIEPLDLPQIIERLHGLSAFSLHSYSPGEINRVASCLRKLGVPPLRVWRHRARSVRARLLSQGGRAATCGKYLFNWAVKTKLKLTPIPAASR

Compound | IC50
Cc1noc(C)c1COc1ccc2c(c1)N(CCN(C)C)CCn1c-2c(C2CCCCC2)c2ccc(C(=O)O)cc21 [Example 1-535, 13-cyclohexyl-5-(2-dimethylaminoethyl)-3-(3,5-dimethylisoxazol-4-ylmethoxy)-6,7-dihydro-5H-benzo[5,6][1,4]diazepino[7,1-a]indole-10-carboxylic acid dihydrochloride] | < 100 nM
Cc1ccc2c(c1)N(CCN1CCCC(=O)CC1)CCn1c-2c(C2CCCCC2)c2ccc(C(=O)O)cc21 [Example 1-536, 13-cyclohexyl-3-methyl-5-[2-(4-oxoazepan-1-yl)ethyl]-6,7-dihydro-5H-benzo[5,6][1,4]diazepino[7,1-a]indole-10-carboxylic acid dihydrochloride] | < 100 nM
Cc1ccc2c(c1)N(CCN1CCC[C@@H](CCC(=O)N(C)C)C1)CCn1c-2c(C2CCCCC2)c2ccc(C(=O)O)cc21 [Example 1-537, 13-cyclohexyl-5-{2-[(S)-3-(2-dimethylcarbamoylethyl)piperidin-1-yl]ethyl}-3-methyl-6,7-dihydro-5H-benzo[5,6][1,4]diazepino[7,1-a]indole-10-carboxylic acid dihydrochloride] | < 100 nM
Cc1ccc2c(c1)N(CCN1CCCC(O)CC1)CCn1c-2c(C2CCCCC2)c2ccc(C(=O)O)cc21 (stereo not shown) [Example 1-538, 13-cyclohexyl-5-[2-(4-hydroxyazepan-1-yl)ethyl]-3-methyl-6,7-dihydro-5H-benzo[5,6][1,4]diazepino[7,1-a]indole-10-carboxylic acid dihydrochloride] | < 100 nM
CCN(CCCCOC)CCN1CCn2c(c(C3CCCCC3)c3ccc(C(=O)O)cc32)-c2ccc(C)cc21 [Example 1-539, 13-cyclohexyl-5-{2-[N-ethyl-N-(4-methoxybutyl)amino]ethyl}-3-methyl-6,7-dihydro-5H-benzo[5,6][1,4]diazepino[7,1-a]indole-10-carboxylic acid dihydrochloride] | < 100 nM
COCCCC1CCCN(CCN2CCn3c(c(C4CCCCC4)c4ccc(C(=O)O)cc43)-c3ccc(C)cc32)C1 [Example 1-540, 13-cyclohexyl-5-{2-[(S)-3-(3-methoxypropyl)piperidin-1-yl]ethyl}-3-methyl-6,7-dihydro-5H-benzo[5,6][1,4]diazepino[7,1-a]indole-10-carboxylic acid dihydrochloride] | < 100 nM
COC(C)(C)[C@@H]1CCCN(CCN2CCn3c(c(C4CCCCC4)c4ccc(C(=O)O)cc43)-c3ccc(C)cc32)C1 [Example 1-541, 13-cyclohexyl-5-{2-[(R)-3-(1-methoxy-1-methylethyl)piperidin-1-yl]ethyl}-3-methyl-6,7-dihydro-5H-benzo[5,6][1,4]diazepino[7,1-a]indole-10-carboxylic acid dihydrochloride] | < 100 nM
COCCC1CCCCN1CCN1CCn2c(c(C3CCCCC3)c3ccc(C(=O)O)cc32)-c2ccc(C)cc21 (stereo not shown) [Example 1-542, 13-cyclohexyl-5-{2-[2-(2-methoxyethyl)piperidin-1-yl]ethyl}-3-methyl-6,7-dihydro-5H-benzo[5,6][1,4]diazepino[7,1-a]indole-10-carboxylic acid dihydrochloride] | < 100 nM
CN(C)CCN1CCn2c(c(C3CCCCC3)c3ccc(C(=O)O)cc32)-c2ccc(OCc3ccccn3)cc21 [Example 1-543, 13-cyclohexyl-5-(2-dimethylaminoethyl)-3-(pyridin-2-ylmethoxy)-6,7-dihydro-5H-benzo[5,6][1,4]diazepino[7,1-a]indole-10-carboxylic acid trihydrochloride] | < 100 nM
COCC[C@@H]1CCCN(CCN2CCn3c(c(C4CCCCC4)c4ccc(C(=O)O)cc43)-c3cc(F)c(F)cc32)C1 [Example 1-544, 13-cyclohexyl-2,3-difluoro-5-{2-[(S)-3-(2-methoxyethyl)piperidin-1-yl]ethyl}-6,7-dihydro-5H-benzo[5,6][1,4]diazepino[7,1-a]indole-10-carboxylic acid dihydrochloride] | < 100 nM
Cc1ccc2c(c1)N(CCN1CCCC(C(=O)N(C)C)C1)CCn1c-2c(C2CCCCC2)c2ccc(C(=O)O)cc21 (stereo not shown) [Example 1-545, 13-cyclohexyl-5-[2-(3-dimethylcarbamoylpiperidin-1-yl)ethyl]-3-methyl-6,7-dihydro-5H-benzo[5,6][1,4]diazepino[7,1-a]indole-10-carboxylic acid dihydrochloride] | < 100 nM
COCCOc1ccc2c(c1)N(CCN1CCCCC1)CCn1c-2c(C2CCCCC2)c2ccc(C(=O)O)cc21 [Example 1-546, 13-cyclohexyl-3-(2-methoxyethoxy)-5-[2-(piperidin-1-yl)ethyl]-6,7-dihydro-5H-benzo[5,6][1,4]diazepino[7,1-a]indole-10-carboxylic acid dihydrochloride] | < 100 nM
COCCO[C@@H]1CCCN(CCN2CCn3c(c(C4CCCCC4)c4ccc(C(=O)O)cc43)-c3ccc(C)cc32)C1 [Example 1-547, 13-cyclohexyl-5-{2-[(R)-3-(2-methoxyethoxy)piperidin-1-yl]ethyl}-3-methyl-6,7-dihydro-5H-benzo[5,6][1,4]diazepino[7,1-a]indole-10-carboxylic acid dihydrochloride] | < 100 nM
CN(C)CCN1CCn2c(c(C3CCCCC3)c3ccc(C(=O)O)cc32)-c2ccc(OCCOc3ccccc3)cc21 [Example 1-548, 13-cyclohexyl-5-(2-dimethylaminoethyl)-3-(2-phenoxyethoxy)-6,7-dihydro-5H-benzo[5,6][1,4]diazepino[7,1-a]indole-10-carboxylic acid dihydrochloride] | < 100 nM
O=C(O)c1ccc2c(C3CCCCC3)c3n(c2c1)CCN(CCN1CCCCC1)c1ncccc1-3 [Example 1-549, 12-cyclohexyl-5-[2-(piperidin-1-yl)ethyl]-6,7-dihydro-5H-4,5,7a-triazadibenzo[a,e]azulene-9-carboxylic acid dihydrochloride] | < 100 nM
O=C(O)c1ccc2c(C3CCCCC3)c3n(c2c1)CCN(CCN1CCCOCC1)c1cc(F)c(F)cc1-3 [Example 1-550, 13-cyclohexyl-2,3-difluoro-5-[2-(1,4-oxazepan-4-yl)ethyl]-6,7-dihydro-5H-benzo[5,6][1,4]diazepino[7,1-a]indole-10-carboxylic acid dihydrochloride] | < 100 nM
COCC1CCCCN(CCN2CCn3c(c(C4CCCCC4)c4ccc(C(=O)O)cc43)-c3ccc(C)cc32)C1 (stereo not shown) [Example 1-551, 13-cyclohexyl-5-[2-(3-methoxymethylazepan-1-yl)ethyl]-3-methyl-6,7-dihydro-5H-benzo[5,6][1,4]diazepino[7,1-a]indole-10-carboxylic acid dihydrochloride] | < 100 nM
CN1CCn2c(c(C3CCCCC3)c3ccc(C(=O)O)cc32)-c2cccc(OCCN3CCCCC3)c21 [Example 1-552, 13-cyclohexyl-5-methyl-4-[2-(piperidin-1-yl)ethoxy]-6,7-dihydro-5H-benzo[5,6][1,4]diazepino[7,1-a]indole-10-carboxylic acid dihydrochloride] | < 100 nM
CC(=O)N(C)CC[C@@H]1CCCN(CCN2CCn3c(c(C4CCCCC4)c4ccc(C(=O)O)cc43)-c3ccc(C)cc32)C1 [Example 1-553, 5-(2-{(S)-3-[2-(N-acetyl-N-methylamino)ethyl]piperidin-1-yl}ethyl)-13-cyclohexyl-3-methyl-6,7-dihydro-5H-benzo[5,6][1,4]diazepino[7,1-a]indole-10-carboxylic acid dihydrochloride] | < 100 nM
Cc1ccc2c(c1)N(CCN1CCCCC1)CCn1c-2c(C2CCCCC2)c2ccc(C(=O)O)c(C)c21 [Example 1-554, 13-cyclohexyl-3,9-dimethyl-5-[2-(piperidin-1-yl)ethyl]-6,7-dihydro-5H-benzo[5,6][1,4]diazepino[7,1-a]indole-10-carboxylic acid dihydrochloride] | < 100 nM
Cc1ccc2c(c1)N(CCN1CCC[C@@H](CCN(C)C)C1)CCn1c-2c(C2CCCCC2)c2ccc(C(=O)O)cc21 [Example 1-555, 13-cyclohexyl-5-{2-[(S)-3-(2-dimethylaminoethyl)piperidin-1-yl]ethyl}-3-methyl-6,7-dihydro-5H-benzo[5,6][1,4]diazepino[7,1-a]indole-10-carboxylic acid dihydrochloride] | < 100 nM
Cc1ccc2c(c1)N(CCN1CCC[C@@H](CC(=O)O)C1)CCn1c-2c(C2CCCCC2)c2ccc(C(=O)O)cc21 [Example 1-556, 5-[2-((S)-3-carboxymethylpiperidin-1-yl)ethyl]-13-cyclohexyl-3-methyl-6,7-dihydro-5H-benzo[5,6][1,4]diazepino[7,1-a]indole-10-carboxylic acid dihydrochloride] | < 100 nM
Cc1ccc2c(c1)N(CCN1CCC[C@@H](CCN(C)C(=O)OC(C)(C)C)C1)CCn1c-2c(C2CCCCC2)c2ccc(C(=O)O)cc21 [Example 1-557, 5-(2-{(S)-3-[2-(N-tert-butoxycarbonyl-N-methylamino)ethyl]piperidin-1-yl)ethyl)-13-cyclohexyl-3-methyl-6,7-dihydro-5H-benzo[5,6][1,4]diazepino[7,1-a]indole-10-carboxylic acid monohydrochloride] | < 100 nM
Cc1ccc2c(c1)N(C1CCN(C(=O)OCc3ccccc3)CC1)CCn1c-2c(C2CCCCC2)c2ccc(C(=O)O)cc21 [Example 1-558, 5-(1-benzyloxycarbonylpiperidin-4-yl)-13-cyclohexyl-3-methyl-6,7-dihydro-5H-benzo[5,6][1,4]diazepino[7,1-a]indole-10-carboxylic acid] | 100 to 1000 nM
Cc1ccc2c(c1)N(CCN1CCC[C@@H](CCN(C)C(=O)N(C)C)C1)CCn1c-2c(C2CCCCC2)c2ccc(C(=O)O)cc21 [Example 1-559, 13-cyclohexyl-3-methyl-5-(2-{(S)-3-[2-(trimethylureido)ethyl]piperidin-1-yl}ethyl)-6,7-dihydro-5H-benzo[5,6][1,4]diazepino[7,1-a]indole-10-carboxylic acid dihydrochloride] | < 100 nM
